According to ChEMBL document CHEMBL1201862, “PubChem BioAssay data set” (2004):
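Growth conditions: 96-well plates. Treatment: test compound, 48 hours, 5 concentrations. Analysis: linear interpolation between bracketing concentrations; unreached endpoints set to highest concentration. GI50 marks 50% less growth.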 Calls of active or inactive are those of the source. Cut-off read from the data, not from the text of the source: active = GI50 up to about 1.1 µM and inactive = higher.

Key:
Assay in all cases: inhibition of tumour cell growth, NCI panel, 48 h
T47D = test system: T47D
SR = test system: SR
TK-10 = test system: TK-10
SF-295 = test system: SF-295
HOP-62 = test system: HOP-62
MOLT-4 = test system: MOLT-4
OVCAR-8 = test system: OVCAR-8
M14 = test system: M14
SK-OV-3 = test system: SK-OV-3
RXF 393 = test system: RXF 393
RPMI-8226 = test system: RPMI-8226
SF-268 = test system: SF-268
Malme-3M = test system: Malme-3M
SK-MEL-2 = test system: SK-MEL-2
U-251 = test system: U-251
HT-29 = test system: HT-29
CAKI-1 = test system: CAKI-1
HCT-15 = test system: HCT-15
BT-549 = test system: BT-549
DU-145 = test system: DU-145

SMILES	GI50 (T47D)	GI50 (SR)	GI50 (TK-10)	GI50 (SF-295)	GI50 (HOP-62)	GI50 (MOLT-4)	GI50 (OVCAR-8)	GI50 (M14)	GI50 (SK-OV-3)	GI50 (RXF 393)	GI50 (RPMI-8226)	GI50 (SF-268)	GI50 (Malme-3M)	GI50 (SK-MEL-2)	GI50 (U-251)	GI50 (HT-29)	GI50 (CAKI-1)	GI50 (HCT-15)	GI50 (BT-549)	GI50 (DU-145)
O=C(O)c1cc2ccc3ccccc3c2oc1=O	> 100 µM (inactive)	> 100 µM (inactive)	> 100 µM (inactive)	> 100 µM (inactive)	> 100 µM (inactive)	> 100 µM (inactive)	> 100 µM (inactive)	> 100 µM (inactive)	> 100 µM (inactive)	> 100 µM (inactive)	> 100 µM (inactive)	> 100 µM (inactive)	> 100 µM (inactive)	> 100 µM (inactive)	> 100 µM (inactive)	> 100 µM (inactive)	> 10 µM (inactive)	> 100 µM	> 100 µM (inactive)	–
CC(C)C1N(C)c2ccc(Cl)cc2[C@H]2c3ccccc3CCN12 (stereo partly drawn)	–	29.9 µM (inactive)	89.9 µM (inactive)	18.2 µM (inactive)	> 100 µM (inactive)	37.8 µM (inactive)	> 100 µM (inactive)	55.1 µM (inactive)	> 100 µM (inactive)	47.5 µM (inactive)	18.7 µM (inactive)	> 100 µM (inactive)	–	25.9 µM (inactive)	61.5 µM (inactive)	22.1 µM (inactive)	–	37.1 µM	> 100 µM (inactive)	53.5 µM (inactive)
COC(=O)c1ccccc1C1CN=NC12Cc1ccc3c(c1C2=O)CCC3 (stereo not drawn)	19.2 µM (inactive)	–	> 100 µM (inactive)	70.6 µM (inactive)	> 100 µM (inactive)	12.6 µM (inactive)	94.4 µM (inactive)	> 100 µM (inactive)	49.4 µM (inactive)	67.9 µM (inactive)	–	27.6 µM (inactive)	21.8 µM (inactive)	> 100 µM (inactive)	49.1 µM (inactive)	82 µM (inactive)	> 100 µM (inactive)	> 100 µM	> 100 µM (inactive)	> 100 µM (inactive)
O=C1/C(=C\c2ccc(Cl)cc2)N=C(c2ccccc2)N1n1c(=O)cn[nH]c1=S	13.5 µM (inactive)	22.5 µM (inactive)	–	> 100 µM (inactive)	52.2 µM (inactive)	18.7 µM (inactive)	21.8 µM (inactive)	> 100 µM (inactive)	> 100 µM (inactive)	–	18.4 µM (inactive)	–	> 100 µM (inactive)	> 100 µM (inactive)	19.8 µM (inactive)	37.7 µM (inactive)	40.2 µM (inactive)	21.5 µM	28.5 µM (inactive)	19.8 µM (inactive)
Nc1ccc2c3c1cccc3c(=O)n1c3ccc(Cc4ccc5c(c4)nc4c6ccc(N)c7cccc(c(=O)n54)c76)cc3nc21	–	> 100 µM (inactive)	–	> 100 µM (inactive)	> 100 µM (inactive)	> 100 µM (inactive)	> 100 µM (inactive)	> 100 µM (inactive)	> 100 µM (inactive)	> 100 µM (inactive)	> 100 µM (inactive)	–	> 100 µM (inactive)	> 100 µM (inactive)	> 100 µM (inactive)	> 100 µM (inactive)	> 100 µM (inactive)	–	> 100 µM (inactive)	> 100 µM (inactive)
COC(=O)C1=C(C(=O)OC)C(C(=O)c2ccc(Br)cc2)N2N=C(c3ccc(Cl)cc3)C=CC12 (stereo not drawn)	–	40.6 µM (inactive)	> 100 µM (inactive)	67 µM (inactive)	> 100 µM (inactive)	> 100 µM (inactive)	> 100 µM (inactive)	> 100 µM (inactive)	> 100 µM (inactive)	–	> 100 µM (inactive)	69.7 µM (inactive)	> 100 µM (inactive)	> 100 µM (inactive)	> 100 µM (inactive)	–	80.7 µM (inactive)	> 100 µM	34.8 µM (inactive)	> 100 µM (inactive)
CC(=O)NC(CC(C)C)C(=O)NC(CC(C)C)C(=O)NC(C=O)CCCNC(=N)N (stereo not drawn)	–	> 100 µM (inactive)	> 100 µM (inactive)	> 100 µM (inactive)	> 100 µM (inactive)	65 µM (inactive)	> 100 µM (inactive)	> 100 µM (inactive)	> 100 µM (inactive)	–	> 100 µM (inactive)	> 100 µM (inactive)	72.6 µM (inactive)	> 100 µM (inactive)	> 100 µM (inactive)	> 100 µM (inactive)	> 100 µM (inactive)	> 100 µM	> 100 µM (inactive)	> 100 µM (inactive)
COc1ccc2c(c1)CCC/C2=N\NS(=O)(=O)c1c(C)cc(C)cc1C	16.5 µM (inactive)	20.2 µM (inactive)	51.4 µM (inactive)	34.4 µM (inactive)	43.4 µM (inactive)	25.5 µM (inactive)	30.9 µM (inactive)	33.2 µM (inactive)	–	–	–	–	24.4 µM (inactive)	34.3 µM (inactive)	31.6 µM (inactive)	20.7 µM (inactive)	38.5 µM (inactive)	30.3 µM	28.9 µM (inactive)	25.6 µM (inactive)
